Data from PMC2577671, “Evaluation of Dimebon in cellular model of Huntington's disease” (Molecular Neurodegeneration, 2008).

Tests used:
[1] = molecular target: T1, Nicotinic Acetylcholine alpha1, Bungarotoxin (Homo sapiens, UniProt P02708); assay: biochemical; parameters: MDS Pharma Lead Profiling screen, binding assays, per cent inhibition, duplicate; settings: read-out: % INHIBITION
T1 construct: gene CHRNA1

[2] = molecular target: T2, Serotonin 5-HT5A receptor (Homo sapiens, UniProt P47898); assay: MDS Pharma Services binding screen at […]
T2 construct: gene HTR5A
T2 sequence (P47898 whole entry): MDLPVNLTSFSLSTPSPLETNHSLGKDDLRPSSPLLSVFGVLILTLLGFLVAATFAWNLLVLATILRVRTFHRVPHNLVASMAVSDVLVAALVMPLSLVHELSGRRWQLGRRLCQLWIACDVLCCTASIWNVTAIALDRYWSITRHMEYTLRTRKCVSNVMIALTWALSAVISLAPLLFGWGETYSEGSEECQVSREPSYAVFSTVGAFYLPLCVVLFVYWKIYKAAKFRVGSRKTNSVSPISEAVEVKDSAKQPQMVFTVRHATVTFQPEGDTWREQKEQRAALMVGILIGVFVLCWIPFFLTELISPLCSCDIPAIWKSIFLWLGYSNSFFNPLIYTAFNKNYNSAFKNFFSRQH

α1D-Adrenergic receptor = molecular target: T3, α1D-Adrenergic receptor (Homo sapiens, UniProt P25100); assay: MDS Pharma Services binding screen at […]
T3 construct: gene ADRA1D
T3 sequence (P25100 whole entry): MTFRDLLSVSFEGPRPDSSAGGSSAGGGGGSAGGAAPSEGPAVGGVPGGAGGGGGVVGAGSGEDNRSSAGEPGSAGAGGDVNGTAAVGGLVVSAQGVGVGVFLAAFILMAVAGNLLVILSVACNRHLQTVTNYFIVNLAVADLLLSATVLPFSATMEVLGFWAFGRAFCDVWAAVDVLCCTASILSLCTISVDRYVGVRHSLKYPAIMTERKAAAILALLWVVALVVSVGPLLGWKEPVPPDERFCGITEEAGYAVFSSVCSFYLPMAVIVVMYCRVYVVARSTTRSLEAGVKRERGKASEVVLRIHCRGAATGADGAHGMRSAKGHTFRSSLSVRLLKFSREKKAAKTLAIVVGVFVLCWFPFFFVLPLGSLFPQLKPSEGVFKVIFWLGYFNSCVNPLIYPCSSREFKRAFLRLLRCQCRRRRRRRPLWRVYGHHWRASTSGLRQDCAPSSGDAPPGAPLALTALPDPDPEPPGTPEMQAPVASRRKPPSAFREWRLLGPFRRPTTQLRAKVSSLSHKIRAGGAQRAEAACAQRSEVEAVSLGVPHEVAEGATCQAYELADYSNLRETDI

[3] = molecular target: Peptidase, BACE1 (beta-Secretase) (Homo sapiens, UniProt P56817); assay: biochemical; parameters: MDS Pharma Lead Profiling + CYP450 screen, enzyme assays, per cent inhibition, duplicate
Chain of Peptidase, BACE1 (beta-Secretase) (P56817 whole entry): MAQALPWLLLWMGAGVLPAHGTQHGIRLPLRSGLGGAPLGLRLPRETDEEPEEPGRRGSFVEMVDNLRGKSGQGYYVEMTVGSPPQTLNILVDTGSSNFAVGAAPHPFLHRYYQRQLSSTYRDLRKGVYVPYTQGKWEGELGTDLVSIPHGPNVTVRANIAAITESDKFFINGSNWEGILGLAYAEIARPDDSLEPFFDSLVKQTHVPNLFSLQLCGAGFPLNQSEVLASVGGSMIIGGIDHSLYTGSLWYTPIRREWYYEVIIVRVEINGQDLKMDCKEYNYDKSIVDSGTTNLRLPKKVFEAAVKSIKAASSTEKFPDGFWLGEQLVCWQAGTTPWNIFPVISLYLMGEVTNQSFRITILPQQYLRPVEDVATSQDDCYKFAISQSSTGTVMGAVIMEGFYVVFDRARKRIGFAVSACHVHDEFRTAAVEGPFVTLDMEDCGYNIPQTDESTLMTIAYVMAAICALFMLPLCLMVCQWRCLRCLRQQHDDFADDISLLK
Experimental: (§1) The activity of Dimebon against selected set of biochemical targets was performed by MDS Pharma Services . The Dimebon was provided to MDS Pharma as dry powder, dissolved in DMSO and tested in 10 μM concentrations. The standard Lead Profiling + CYP450 screen was performed according to MDS Pharma specifications with additional custom-chosen targets added to the screen as indicated. To further understand potential mechanisms responsible for clinical effects of Dimebon, we evaluated Dimebon against a set of selected biochemical targets. Dimebon evaluation was performed by MDS Pharma Services . The standard Lead Profiling + CYP450 screen was performed with additional custom-selected targets added to the screen. The results of the screen obtained at 10 μM of Dimebon are provided as Additional File 3. […] Low affinity (50–60% inhibition) interactions were also observed for CYP450, 2C19 receptor, voltage-gated L-type Ca^2+ channel, Dopamine D4.2 receptor, and Serotonin 5-HT1 receptor. […] Supplementary file 1750-1326-3-15-S3.pdf: Additional file 3 The results of Dimebon screening against a selected set of biochemical targets. The complete results obtained by MDS Pharma with a selected list of biochemical targets using 10 μM of Dimebon as a probe. The Cat numbers refer to the MDS Pharma Services assay specification. The receptors and species are listed. Dimebon was tested at 10 μM concentratio in duplicate. The % inhibition by Dimebon is shown numerically and graphically for each receptor. Significant targets (defined as % inhibition > 50%) are highlighted in yellow. Click here for file

Monoamine Oxidase MAO-A = molecular target: T4, Monoamine Oxidase MAO-A (Homo sapiens, UniProt P21397); assay: biochemical; parameters: MDS Pharma Lead Profiling + CYP450 screen, enzyme assays, per cent inhibition, duplicate
T4 construct: gene MAOA
T4 sequence (P21397 whole entry): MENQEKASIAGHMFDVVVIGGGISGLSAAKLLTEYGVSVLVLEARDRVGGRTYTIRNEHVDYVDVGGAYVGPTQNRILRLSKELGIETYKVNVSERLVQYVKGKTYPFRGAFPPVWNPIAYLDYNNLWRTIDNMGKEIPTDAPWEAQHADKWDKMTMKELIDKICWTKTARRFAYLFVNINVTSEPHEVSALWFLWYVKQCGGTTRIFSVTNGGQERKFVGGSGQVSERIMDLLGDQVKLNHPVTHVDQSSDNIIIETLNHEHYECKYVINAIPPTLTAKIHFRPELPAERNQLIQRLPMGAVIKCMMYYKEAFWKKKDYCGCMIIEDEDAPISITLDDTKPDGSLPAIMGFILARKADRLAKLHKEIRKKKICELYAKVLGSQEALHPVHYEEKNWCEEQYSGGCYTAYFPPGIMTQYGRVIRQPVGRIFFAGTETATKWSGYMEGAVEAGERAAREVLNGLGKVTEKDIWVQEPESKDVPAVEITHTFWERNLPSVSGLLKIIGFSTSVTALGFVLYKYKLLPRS
Experimental: as §1

Monoamine Oxidase MAO-B = molecular target: T5, Monoamine Oxidase MAO-B (Homo sapiens, UniProt P27338); assay: biochemical; parameters: MDS Pharma Lead Profiling + CYP450 screen, enzyme assays, per cent inhibition, duplicate
T5 construct: gene MAOB
Experimental: as §1

Serotonin 5-HT6 receptor = molecular target: T6, Serotonin 5-HT6 receptor (Homo sapiens, UniProt P50406); assay: MDS Pharma Services binding screen at […]
T6 construct: gene HTR6
T6 sequence (P50406 whole entry): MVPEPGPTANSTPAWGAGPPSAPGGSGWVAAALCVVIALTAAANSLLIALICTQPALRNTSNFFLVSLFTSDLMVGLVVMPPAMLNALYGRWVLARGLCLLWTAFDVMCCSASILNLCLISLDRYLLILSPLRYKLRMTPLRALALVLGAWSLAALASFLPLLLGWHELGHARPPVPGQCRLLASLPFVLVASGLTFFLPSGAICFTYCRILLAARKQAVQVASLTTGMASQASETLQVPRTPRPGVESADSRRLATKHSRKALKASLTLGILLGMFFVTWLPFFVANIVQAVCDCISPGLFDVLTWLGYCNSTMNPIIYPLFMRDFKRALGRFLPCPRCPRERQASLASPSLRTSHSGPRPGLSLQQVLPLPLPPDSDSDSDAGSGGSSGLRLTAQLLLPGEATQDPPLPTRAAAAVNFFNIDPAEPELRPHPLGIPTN

Potassium Channel hERG = molecular target: T7, Potassium Channel hERG (Homo sapiens, UniProt Q12809); assay: in vitro; parameters: MDS Pharma Lead Profiling screen, binding assays, per cent inhibition, duplicate
T7 construct: gene KCNH2
Experimental: as §1, with “Dimebon was tested at 10 μM concentratio in duplicate. The % inhibition by Dimebon is shown numerically and graphically for each receptor. Significant targets (defined as % inhibition > 50%) are highlighted in yellow. Click here for file” left out

α1B-Adrenergic receptor = molecular target: T8, α1B-Adrenergic receptor (Rattus norvegicus, UniProt P15823); assay: MDS Pharma Services binding screen at […]
T8 construct: gene Adra1b

Muscarinic M1 = molecular target: T9, Muscarinic M1 (Homo sapiens, UniProt P11229); assay: biochemical; parameters: MDS Pharma Lead Profiling screen, binding assays, per cent inhibition, duplicate
T9 construct: gene CHRM1
Experimental: as §1

[4] = molecular target: T10, Transporter, Dopamine (DAT) (Homo sapiens, UniProt Q01959); assay: biochemical; parameters: MDS Pharma Lead Profiling screen, binding assays, per cent inhibition, duplicate
T10 construct: gene SLC6A3
Experimental: as §1

Melatonin MT1 = molecular target: T11, Melatonin MT1 (Homo sapiens, UniProt P48039); assay: biochemical; parameters: MDS Pharma Lead Profiling screen, binding assays, per cent inhibition, duplicate
T11 construct: gene MTNR1A
Experimental: as §1

Neuropeptide Y Y1 = molecular target: T12, Neuropeptide Y Y1 (Homo sapiens, UniProt P25929); assay: biochemical; parameters: MDS Pharma Lead Profiling screen, binding assays, per cent inhibition, duplicate
T12 construct: gene NPY1R
T12 sequence (P25929 whole entry): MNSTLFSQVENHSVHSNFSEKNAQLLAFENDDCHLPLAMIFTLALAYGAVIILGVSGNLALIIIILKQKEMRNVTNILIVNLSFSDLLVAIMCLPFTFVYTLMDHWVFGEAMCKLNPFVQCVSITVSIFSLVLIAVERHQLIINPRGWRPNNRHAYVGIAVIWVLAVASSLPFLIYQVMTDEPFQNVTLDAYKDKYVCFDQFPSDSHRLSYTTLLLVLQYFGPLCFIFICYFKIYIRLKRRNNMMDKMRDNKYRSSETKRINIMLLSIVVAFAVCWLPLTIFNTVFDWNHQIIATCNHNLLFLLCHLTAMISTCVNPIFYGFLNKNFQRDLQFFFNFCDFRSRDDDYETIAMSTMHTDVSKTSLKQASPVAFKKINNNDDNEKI
Experimental: as §1

Histamine H2 receptor = molecular target: T13, Histamine H2 receptor (Homo sapiens, UniProt P25021); assay: biochemical; parameters: MDS Pharma Lead Profiling screen, binding assays, per cent inhibition, duplicate
T13 construct: gene HRH2
Experimental: as §1

Glucocorticoid = molecular target: T14, Glucocorticoid (Homo sapiens, UniProt P04150); assay: biochemical; parameters: MDS Pharma Lead Profiling screen, binding assays, per cent inhibition, duplicate
T14 construct: gene NR3C1
Experimental: as §1

Adenosine A2A = molecular target: T15, Adenosine A2A (Homo sapiens, UniProt P29274); assay: biochemical; parameters: MDS Pharma Lead Profiling screen, binding assays, per cent inhibition, duplicate
T15 construct: gene ADORA2A
T15 sequence (P29274 whole entry): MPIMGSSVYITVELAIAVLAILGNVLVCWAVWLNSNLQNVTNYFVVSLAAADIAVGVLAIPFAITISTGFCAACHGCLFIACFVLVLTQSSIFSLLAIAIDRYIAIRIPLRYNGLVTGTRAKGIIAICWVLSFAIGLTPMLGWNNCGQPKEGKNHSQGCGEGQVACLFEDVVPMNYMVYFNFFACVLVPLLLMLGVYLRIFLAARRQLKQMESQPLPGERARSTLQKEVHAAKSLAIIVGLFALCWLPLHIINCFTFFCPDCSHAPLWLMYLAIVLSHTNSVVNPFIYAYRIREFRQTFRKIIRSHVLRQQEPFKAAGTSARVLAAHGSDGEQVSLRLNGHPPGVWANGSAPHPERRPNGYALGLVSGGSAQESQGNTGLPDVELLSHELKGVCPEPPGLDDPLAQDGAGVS
Experimental: as §1

[5] = molecular target: T16, Transporter, Serotonin (SERT) (Homo sapiens, UniProt P31645); assay: biochemical; parameters: MDS Pharma Lead Profiling screen, binding assays, per cent inhibition, duplicate
T16 construct: gene SLC6A4
Experimental: as §1

Dopamine D3 = molecular target: T17, Dopamine D3 (Homo sapiens, UniProt P35462); assay: biochemical; parameters: MDS Pharma Lead Profiling screen, binding assays, per cent inhibition, duplicate
T17 construct: gene DRD3
T17 sequence (P35462 whole entry): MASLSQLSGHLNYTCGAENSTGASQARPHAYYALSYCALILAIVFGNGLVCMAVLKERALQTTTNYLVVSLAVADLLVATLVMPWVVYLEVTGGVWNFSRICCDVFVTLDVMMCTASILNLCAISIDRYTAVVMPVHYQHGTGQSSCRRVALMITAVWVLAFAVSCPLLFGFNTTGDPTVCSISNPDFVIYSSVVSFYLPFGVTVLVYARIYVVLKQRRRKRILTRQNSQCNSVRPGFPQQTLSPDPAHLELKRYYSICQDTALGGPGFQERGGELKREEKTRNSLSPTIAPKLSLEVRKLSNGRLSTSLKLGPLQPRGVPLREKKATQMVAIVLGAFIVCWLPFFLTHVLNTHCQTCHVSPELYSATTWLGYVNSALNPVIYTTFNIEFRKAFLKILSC
Experimental: as §1

Sigma 1 = molecular target: T18, Sigma 1 (Homo sapiens, UniProt Q99720); assay: biochemical; parameters: MDS Pharma Lead Profiling screen, binding assays, per cent inhibition, duplicate
T18 construct: gene SIGMAR1
Experimental: as §1

[6] = molecular target: T19, G Protein-Coupled Receptor GPR103 (Homo sapiens, UniProt Q96P65); assay: biochemical; parameters: MDS Pharma Lead Profiling screen, binding assays, per cent inhibition, duplicate
T19 construct: gene QRFPR
T19 sequence (Q96P65 whole entry): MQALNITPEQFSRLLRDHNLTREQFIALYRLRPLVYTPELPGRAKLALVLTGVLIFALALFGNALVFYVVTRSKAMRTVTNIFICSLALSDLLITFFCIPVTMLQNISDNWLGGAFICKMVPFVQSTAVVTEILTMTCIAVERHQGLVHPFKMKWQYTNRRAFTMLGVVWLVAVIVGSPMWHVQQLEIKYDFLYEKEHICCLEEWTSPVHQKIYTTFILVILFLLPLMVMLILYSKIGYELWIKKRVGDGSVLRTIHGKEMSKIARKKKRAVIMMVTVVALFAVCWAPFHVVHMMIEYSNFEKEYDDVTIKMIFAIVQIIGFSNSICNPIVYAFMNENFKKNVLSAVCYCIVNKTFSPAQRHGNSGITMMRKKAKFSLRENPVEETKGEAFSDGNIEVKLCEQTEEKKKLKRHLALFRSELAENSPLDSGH
Experimental: as §1

Serotonin 5-HT2B = molecular target: T20, Serotonin 5-HT2B (Homo sapiens, UniProt P41595); assay: biochemical; parameters: MDS Pharma Lead Profiling screen, binding assays, per cent inhibition, duplicate
T20 construct: gene HTR2B
Experimental: as §1

Adenosine A1 = molecular target: T21, Adenosine A1 (Homo sapiens, UniProt P30542); assay: biochemical; parameters: MDS Pharma Lead Profiling screen, binding assays, per cent inhibition, duplicate
T21 construct: gene ADORA1
T21 sequence (P30542 whole entry): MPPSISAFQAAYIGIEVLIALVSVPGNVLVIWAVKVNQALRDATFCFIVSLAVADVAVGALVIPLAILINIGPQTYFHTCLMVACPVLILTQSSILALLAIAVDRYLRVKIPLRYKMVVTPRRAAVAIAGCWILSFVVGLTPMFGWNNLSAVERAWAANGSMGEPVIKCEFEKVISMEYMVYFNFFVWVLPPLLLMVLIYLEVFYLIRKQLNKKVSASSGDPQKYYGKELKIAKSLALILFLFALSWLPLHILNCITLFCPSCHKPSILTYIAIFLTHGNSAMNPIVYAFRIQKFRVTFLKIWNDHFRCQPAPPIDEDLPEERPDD
Experimental: as §1

T1 sequence (P02708 whole entry): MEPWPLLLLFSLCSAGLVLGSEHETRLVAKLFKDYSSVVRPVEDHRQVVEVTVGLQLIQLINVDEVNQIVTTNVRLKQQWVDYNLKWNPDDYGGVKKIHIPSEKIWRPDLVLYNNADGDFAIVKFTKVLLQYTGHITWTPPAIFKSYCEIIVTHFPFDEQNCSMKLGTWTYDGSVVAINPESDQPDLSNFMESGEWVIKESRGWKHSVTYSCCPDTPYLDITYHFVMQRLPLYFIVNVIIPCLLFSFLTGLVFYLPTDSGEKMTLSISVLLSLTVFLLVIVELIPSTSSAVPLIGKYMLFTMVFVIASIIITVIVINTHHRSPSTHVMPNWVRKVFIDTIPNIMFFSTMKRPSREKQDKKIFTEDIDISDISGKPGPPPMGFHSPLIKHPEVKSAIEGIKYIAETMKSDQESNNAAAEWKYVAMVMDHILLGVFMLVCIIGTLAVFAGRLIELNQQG

SMILES: Cc1ccc2c(c1)c1c(n2CCc2ccc(C)nc2)CCN(C)C1 [Dimebon, 2,3,4,5-Tetrahydro-2,8-dimethyl-5-(2-(6-methyl-3-pyridyl)ethyl)-1H-pyrido(4,3-b)indole]
- inhibition at 10 µM [1]: 1%
- inhibition at 10 µM [2]: > 90%
- inhibition at 10 µM (α1D-Adrenergic receptor): > 90%
- inhibition at 10 µM [3]: -9%
- inhibition at 10 µM (Monoamine Oxidase MAO-A): 6%
- inhibition at 10 µM (Monoamine Oxidase MAO-B): 5%
- inhibition at 10 µM (Serotonin 5-HT6 receptor): > 90%
- inhibition at 10 µM (Potassium Channel hERG): 45%
- inhibition at 10 µM (α1B-Adrenergic receptor): > 90%
- inhibition at 10 µM (Muscarinic M1): 9%
- inhibition at 10 µM [4]: 13%
- inhibition at 10 µM (Melatonin MT1): 3%
- inhibition at 10 µM (Neuropeptide Y Y1): 4%
- inhibition at 10 µM (Histamine H2 receptor): 96%
- inhibition at 10 µM (Glucocorticoid): 3%
- inhibition at 10 µM (Adenosine A2A): -3%
- inhibition at 10 µM [5]: -7%
- inhibition at 10 µM (Dopamine D3): 73%
- inhibition at 10 µM (Sigma 1): 28%
- inhibition at 10 µM [6]: 4%
- inhibition at 10 µM (Serotonin 5-HT2B): 74%
- inhibition at 10 µM (Adenosine A1): 0%
